Reference: US7547691B2, “[4-(Benzo[B]thiophen-2-yl) Pyrimidin-2-yl]-amine derivatives as IKK-beta inhibitors for the treatment of cancer and inflammatory diseases” (Eli Lilly and Company, priority 2005, dated 2009)
Structures can show the parent of a compound that is named as a salt.

What was measured:
[1] = tested on: H460 cells; test: Cell Viability Test, H460; type: cell-based; settings: NCI-H460; H460 (human non-small cell lung cancer line); 1 ng/mL TNFα, 0.5% DMSO, 0.5 μg/mL cycloheximide, 48 hours; read-out: Cell Viability Inhibition IC50
Procedure: (§1) RPMI 8226 cells (ATCC #CCL-155; human multiple myeloma cell line) are grown in RPMI 1640 medium (Gibco #11875-093) supplemented with 10% FBS (fetal bovine serum, Gibco #10082-147), 10 mM HEPES (Gibco #15630-080), 1 mM sodium pyruvate (Gibco #11360-070), and 4.5 mg/mL glucose. HCT116 cells (ATCC #CCL-247; human colon cancer cell line) are grown in McCoy's 5A modified medium (Gibco #16600-082) supplemented with 10% FBS (Gibco #10082-147). H460 cells (ATCC #HTB-177; human non-small cell lung cancer line) are grown in RPMI 1640 (Gibco #11875-093) supplemented with 10% FBS (Gibco #10082-147). […]
(§2) For compound testing, various cancer cells are seeded at 5,000 cells/well in 100 μl corresponding media specified above for each cell line in 96-well plates one day prior to treatment. […] Cell death in each well is determined by the addition of 15 μL of the One Solution Reagent (The CellTiter 96® AQueous One Solution Reagent, Promega #G3580). After 1-2 hours of incubation at 37° C., optical densities at 490 nm are measured with a microplate reader (Molecular Devices SpectraMax). Inhibition of cell viability is determined by comparison to the control cells treated in the absence of a test compound.

[2] = biological target: T1, IKKbeta (Homo sapiens, UniProt O14920); test: IKK-beta Kinase Assay; type: biochemical; settings: purified IKKβ 4 nM, 20 μM IKB peptide, 10 μM ATP, 90 minutes; absolute IC50; read-out: Enzyme Inhibition IC50
T1 sequence (O14920 1-756): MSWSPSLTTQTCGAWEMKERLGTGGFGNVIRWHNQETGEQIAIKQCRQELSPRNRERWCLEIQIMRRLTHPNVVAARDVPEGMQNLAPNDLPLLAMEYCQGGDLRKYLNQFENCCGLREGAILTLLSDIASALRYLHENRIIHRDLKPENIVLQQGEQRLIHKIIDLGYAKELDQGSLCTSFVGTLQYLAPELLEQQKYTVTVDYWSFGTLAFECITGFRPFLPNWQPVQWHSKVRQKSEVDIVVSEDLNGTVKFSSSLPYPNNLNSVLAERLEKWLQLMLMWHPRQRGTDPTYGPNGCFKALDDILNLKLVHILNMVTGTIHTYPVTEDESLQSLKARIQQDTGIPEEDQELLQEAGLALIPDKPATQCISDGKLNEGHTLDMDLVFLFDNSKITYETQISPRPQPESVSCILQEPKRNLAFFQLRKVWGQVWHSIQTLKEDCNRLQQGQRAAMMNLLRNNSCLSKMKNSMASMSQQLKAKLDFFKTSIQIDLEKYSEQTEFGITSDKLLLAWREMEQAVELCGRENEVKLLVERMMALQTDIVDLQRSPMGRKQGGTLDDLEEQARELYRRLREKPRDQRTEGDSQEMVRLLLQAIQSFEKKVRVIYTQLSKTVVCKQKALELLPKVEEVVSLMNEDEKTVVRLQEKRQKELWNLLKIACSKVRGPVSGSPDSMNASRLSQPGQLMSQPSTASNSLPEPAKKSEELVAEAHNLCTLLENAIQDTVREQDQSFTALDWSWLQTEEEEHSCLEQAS
Procedure: The kinase activity of purified IKKβ is measured in vitro using a synthetic IKB peptide fragment (-[…]-) derived from IKB protein as a substrate. All reactions (30 μL) are started by the addition of the IKKb enzyme (final concentration: 4 nM) and then incubated at room temperature for 90 minutes in the reaction mix containing 20 μM IKB peptide, 10 μM ATP, 5 mM MgCl2, 50 mM Tris-HCl pH 7.5, 3 mM DTT, 4% DMSO, 1 mM Sodium Orthovandate, 0.5 mM β-glycerophosphate, 0.01% Triton X-100, 4 μCi γ-^33p-ATP/reaction. Reactions are terminated by addition of 30 μL 10% phosphoric acid, and the terminated reaction mix is filtered through a phosphocellulose membrane to remove unused γ-^33P-ATP. After four washes with 0.5% phosphoric acid, radio-labeled products bound to the filter are counted using a microbeta counter. All exemplified compounds are initially tested at 10 concentrations (20 μM down to 1 nM) using a 1:3 serial dilution scheme on the Beckman Tecan serial diluter. Calculation is done using a software package from IDBS (Activity Base) where an absolute IC50 value (non-linear regression) is calculated. Example 20 is specifically detailed below.

[3] = tested on: U87MG cells; test: Cell Viability Test, U87MG; type: cell-based; settings: U-87 MG; U87MG (human glioblastoma cell line); 1 ng/mL TNFα, 0.5% DMSO, 48 hours; read-out: Cell Viability Inhibition IC50
Procedure: as §1, §2

[4] = tested on: HCT116 cells; test: Cell Viability Test, HCT116; type: cell-based; settings: HCT-116; HCT116 (human colon cancer cell line); 1 ng/mL TNFα, 0.5% DMSO, 48 hours; read-out: Cell Viability Inhibition IC50
Procedure: as §1, §2

[5] = tested on: RPMI 8226 cells; test: Cell Viability Test, RPMI-8226; type: cell-based; settings: RPMI-8226 (human multiple myeloma cell line); 1 ng/mL TNFα, 0.5% DMSO, 48 hours; read-out: Cell Viability Inhibition IC50
Procedure: as §1, §2

[6] = tested on: A2780 cells; test: Cell Viability Test, A2780; type: cell-based; settings: A2780 (human ovarian carcinoma); 1 ng/mL TNFα, 0.5% DMSO, 48 hours; read-out: Cell Viability Inhibition IC50
Procedure: as §1, §2

## CN1CCN(CCCNc2ncc(Cl)c(-c3cc4c(C(=O)NC5CC5)cccc4s3)n2)CC1 [Example 20, 2-{5-Chloro-2-[3-(4-methylpiperazin-1-yl)-propylamino]-pyrimidin-4-yl}-benzo[b]thiophene-4-carboxylic acid cyclopropylamide tri-hydrochloride]
[1]
  IC50: 9 µM
[2]
  IC50: 0.046 µM
[3]
  IC50: 22.3 µM
[4]
  IC50: 19.2 µM
[5]
  IC50: 2.2 µM
[6]
  IC50: 11.7 µM
